The subject of data set [1] is SH-SY5Y human neuroblastoma cells. Put plainly: Anti-necrotic effect: LDH release after OGD (4 h) and 24 h OGR (IR). The conditions noted are these: Homo sapiens, OGD 4 h + 24 h OGR (IR); for IC50: compounds 0.1 μM to 1 mM, read-out: LDH Release Inhibition IC50 ±SEM; for Emax: read-out: Maximal Inhibition Mean±SEM (LDH release). It is filed as cell-based. Here is the method: (§1) To induce experimental ischemia, and the sub-consequent cellular damage, the neuroblastoma cultures underwent OGD for 3–4 h, maintained in a glucose-free Dulbecco’s medium inside an anaerobic chamber in the presence of a gas mixture of 95% N2/5% CO2 and humidified at 37 °C at a constant pressure of 0.15 bar. After the OGD period (4 h), medium was substituted by oxygenated 10% FCS-containing medium, and cells were incubated in conditions of normoxia for 24 h to recovery (R24h). The compounds used in the neuroprotection studies: nitrones 9a–i, α-phenyl-N-tert-butyl nitrone (PBN) and N-acetyl-L-cysteine (NAC) (0.01 μM−1000 µM), were added at the beginning of R24h as described. Concurrently, controls in the absence of the OGD procedure were performed by maintaining these cells with Dulbecco’s medium including glucose for 3–4 h in an incubator in conditions of normoxia during the OGD period; thereafter, the medium was changed, and the cells (in the presence or absence of the different study compounds) were returned to the incubator for 24 h of recovery, as described. In addition, experiments including the same amounts of vehicle (final concentration < 1% dimethyl sulfoxide) were performed, serving as controls. The effects of nitrones 9a–g were analyzed three-five times independently using different culture batches, and each experiment was carried out in triplicate.
Anti-necrotic cell activity was evaluated by culturing SHSY5Y cells in 48-well dishes, in a density of 2 × 10^5 cells/well and treating them as controls or under the OGD-R24h procedure, adding the testing compounds at 0.01–1000 µM (see point 4.2.2.). Media of every well were collected in Eppendorf tubes properly labelled and stored at −20 °C until measurement (samples would be needed to measure extracellular NADH). Afterwards, each well was recharged with a 0.1 M Phosphate Buffer with 0.5% Triton X-100, pH 7.5, in order to scratch the cells from the bottom of the well. After a 13.000 rpm centrifugation, the soluble fractions are collected and labelled (samples would be essential to measure intracellular NADH). Finally, LDH activity was quantified as the degree of absorbance declined at 340, indicating the oxidation of NADH to NAD+ as described. Results are expressed as the LDH activity of the extracellular medium referred to the total LDH activity after cell lysis.

The test system of data set [2] is human neuroblastoma SH-SY5Y cells. Put plainly: Superoxide radical production (DHE fluorescence) after OGD and 3 h OGR (IR). It is filed as cell-based. Particulars: Homo sapiens, OGD + 3 h OGR (IR); for EC50: compounds 0.1 to 1000 μM, read-out: Antioxidant Activity EC50 ± SEM (superoxide production); for Emax: read-out: Maximal Activity mean±SEM (antioxidant). Here is the method: A density of 2–2.5 × 10^5 SHSY5Y cells/well was used to seed in 48-well plates to quantify superioxide anion formation. Firstly, cultured cells were exposed to OGD treatment for 3–4 h or maintained in normoxic conditions (controls). Thereafter, medium was replaced with oxygenated Dulbecco’s: Ham’s F12 medium with glucose, 1% Antibiotic-Antimycotic, 1% Gentamicin and 10% FCS. Cells were incubated in the absence (controls) or presence of indicated concentrations of the compounds of study, at 37 °C for 3 h. […] For every condition, the linear regression of fluorescence data (expressed in arbitrary fluorescence units, AFU) was calculated, and the slopes (a) of the best fitting lines (y = ax) were considered as an index of superoxide production, as described previously.

The target of data set [3] is T1, Soybean Lipoxygenase (SLOX) (Glycine max, UniProt P08170).
T1 sequence (P08170 1-839): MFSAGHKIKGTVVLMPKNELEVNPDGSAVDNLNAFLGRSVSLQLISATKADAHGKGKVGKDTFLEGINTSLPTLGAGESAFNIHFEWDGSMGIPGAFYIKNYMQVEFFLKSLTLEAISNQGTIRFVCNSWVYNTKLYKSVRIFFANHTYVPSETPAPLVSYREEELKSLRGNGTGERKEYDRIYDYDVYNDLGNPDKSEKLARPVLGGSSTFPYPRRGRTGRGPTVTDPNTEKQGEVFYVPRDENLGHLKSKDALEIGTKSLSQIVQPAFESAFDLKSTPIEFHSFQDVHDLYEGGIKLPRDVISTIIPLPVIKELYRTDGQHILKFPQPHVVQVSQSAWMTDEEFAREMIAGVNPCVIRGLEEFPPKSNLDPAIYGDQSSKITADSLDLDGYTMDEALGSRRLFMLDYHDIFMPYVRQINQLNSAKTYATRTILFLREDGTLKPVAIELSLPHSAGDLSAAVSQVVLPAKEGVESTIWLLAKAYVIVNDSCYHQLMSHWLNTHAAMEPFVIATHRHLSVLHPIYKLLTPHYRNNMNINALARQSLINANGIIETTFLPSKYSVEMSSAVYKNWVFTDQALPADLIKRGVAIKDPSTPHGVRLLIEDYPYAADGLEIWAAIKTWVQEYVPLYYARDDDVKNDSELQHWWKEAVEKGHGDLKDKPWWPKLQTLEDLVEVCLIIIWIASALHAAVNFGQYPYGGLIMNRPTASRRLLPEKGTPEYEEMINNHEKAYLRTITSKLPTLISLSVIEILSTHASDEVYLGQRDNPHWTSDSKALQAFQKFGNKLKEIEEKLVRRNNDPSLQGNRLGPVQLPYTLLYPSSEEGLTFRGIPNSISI
The experiment in a line: In vitro inhibition of soybean lipoxygenase (UV absorbance-based enzyme assay). The data set is classed as biochemical. Particulars: soybean LOX, sodium linoleate substrate, pH 9. On the procedure: The experimental conditions followed our previously reported protocol. Sodium linoleate was used as a substrate (0.1 mM) with 0.2 mL of the saline solution of SLOX (1/9 × 10^−4 w/v) in the Tris buffer pH 9.

Data set [4] in a line: Inhibition of lipid peroxidation (ILPO), AAPH protocol with sodium linoleate. The conditions noted are these: tested at 100 µM. Here is the method:
The reactants consisting of 10 µL (16 mM) sodium linoleate, 10 µL of the tested nitrones in DMSO (final concentration 100 µM), 50 µL of AAPH ([…]) as a free radical initiator, 930 µL phosphate buffer pH 7.4 (0.05 M) at 37 °C under air, were mixed and the reaction’s result (as absorbance value) was recorded at 234 nm in comparison to PBN as a reference.

Data set [5] in a line: Reducing ability: interaction with DPPH. Particulars: tested at 100 µM.
Data set [6] can be described thus: Hydroxyl radical scavenging (competition with DMSO). The conditions noted are these: tested at 100 µM. Here is the method:
The competition of the tested nitrones (100 µM) with DMSO (33 mM) in the phosphate buffer (50 mM), pH 7.4, was used. The hydroxyl radicals were generated by the Fe^3+/ascorbic acid system (EDTA 0.1 mM, Fe^3+ 167 µM, ascorbic acid 10 mM), and the samples were incubated at 37 °C/30 min. A 17% w/v solution of CCl3CO2H was used to stop the radical propagation. The percentage scavenging activity was compared to Trolox used as a reference.

Data set [7] is described as follows: ABTS radical cation decolorization assay. The conditions noted are these: tested at 100 µM. Here is the method:
Approximately 10 µL of the tested compounds in DMSO (100 µM final concentration) were mixed with 200 µL of ABTS∙^+ (100 mM) and 790 µL absolute ethanol. The absorbance value was recorded 1 min after mixing at 734 nm and compared to Trolox.

Data set [8] concerns SH-SY5Y human neuroblastoma cells. The experiment in a line: Neuroprotection: cell viability (XTT metabolic activity) after OGD (4 h) followed by OGR (24 h) (IR). The data set is classed as cell-based. Particulars: Homo sapiens, OGD 4 h + OGR 24 h (IR); for Emax: 24 h, read-out: Maximal Activity mean±SEM (neuroprotection); for EC50: compounds 0.01 μM to 1 mM, read-out: Neuroprotection EC50 ± SEM. Here is the method: Cultures of human neuroblastoma cells from line SH-SY5Y were performed in flasks containing Dulbecco’s: Ham’s F12, 1:1 [v/v] composed of 0.5 mM sodium pyruvate, 2.5 mM GlutaMAX™; GIBCO, Life Technologies, Madrid (Spain), 3.15 mg/mL glucose, 1% Antibiotic-Antimycotic (100 ui/mL penicillin, […] streptomycin, and 0.25 mg amphotericin B), 1% Gentamicin 15 mg/mL (Sigma-Aldrich, Madrid, Spain) and 10% Fetal Calf Serum (FCS) (Gibco; Life Technologies, Madrid, Spain) as as described. For each experiment, neuroblastoma cells were digested partially with 0.25% trypsin-EDTA and seeded in plates of 96 or 48 wells with a density of 0.5–1 or 2–2.5 × 10^5 cells/well, respectively, depending on the assay. At 80% confluence of the seeded cells, medium was renewed adding 0.1–1000 µM of the compounds tested.
as §1
(§2) Cell viability measurements were carried out in human neuroblastoma cells SHSY5Y using 96-well culture plates, containing about 0.5–1 × 10^5 cells/well, after the OGD-R24h or control treatment including 0.01–1000 µM of the different testing compounds (nitrones 9a–g, PBN, and NAC), utilizing the Cell Proliferation Kit II (XTT), Sigma Aldrich, Madrid, Spain, which determines the culture’s metabolic capacity, as described in [21, 22]. XTT solution (0.3 mg/mL final concentration) was added to the seeded cells, incubated for 2 h at 37 °C with 5% CO2 and 95% air (v/v), and a spectrophotometer reader (Biotek Power-Wave XS microplate-reader (BioTek Instruments, Madrid, Spain) was used to register the absorbance at 450 nm (reference 650 nm) of the soluble formazan product generated. 100% viability was set by control normoxic cells treated with medium only, and control cells were added 0.001–1% DMSO in every assay.

In data set [9] the test system is human neuroblastoma SH-SY5Y cells. Put plainly: Basal neurotoxicity: cell viability under basal conditions. It is filed as cell-based. Here is the method:
as §2

For `C/[N+]([O-])=C/Cn1ccc(=O)[nH]c1=O` [9a], in [1], the IC50 came to 2.57 ± 0.53 µM and the Emax is 100 ± 4.75%. Moreover, in [2], the EC50 was determined as 0.37 ± 0.04 µM and the Emax was found to be 111 ± 1.46%. In addition, the IC50 in [3] turned out to be 62.5 µM. Further, the “ILPO (%)” value in [4] came out at 62%. In [5], the “DPPH (%)” value was 20%. In addition, the “OH (%) scavenging” value in data set [6] was “no activity and No”. The “ABTS+ (%)” value in data set [7] was 19%.

For the molecule `C/[N+]([O-])=C/Cn1cc(F)c(=O)[nH]c1=O` [9c], the melting point was 195 °C (dec.). Moreover, in [1], the IC50 was approximately 1 µM and the Emax is 148 ± 8.8%. In addition, in data set [2], the EC50 turned out to be 3.69 ± 0.7 µM and the Emax amounted to 96.1 ± 3.03%. In data set [3], the half-maximal inhibitory concentration (IC50) came to 28 µM. In addition, in data set [4], the “ILPO (%)” value is 59%. Moreover, the “DPPH (%)” value in [5] amounted to 18%. For the same molecule, the “OH (%) scavenging” value in data set [6] is on record as 99%. Moreover, in data set [7], the “ABTS+ (%)” value is 5%.

In the case of `Cn1c(=O)c2ncn(C/C=[N+](/C)[O-])c2n(C)c1=O` [9g], the melting point was 192 °C (dec.). Besides, the Emax in data set [8] worked out at 105 ± 3.19%. Also, the IC50 in [1] was found to be 2.66 ± 1.11 µM. Also, in data set [2], the EC50 was determined as 0.28 ± 0.03 µM and the Emax was 83 ± 1.37%. Further, inhibition in data set [3] was half-maximal at 33 µM (IC50). For the same molecule, the “DPPH (%)” value in [5] is reported as 15%. In addition, the “OH (%) scavenging” value in data set [6] is on record as 49%. In addition, the “ABTS+ (%)” value in data set [7] is recorded as 8%.

For `C/[N+]([O-])=C/Cn1ccc(=O)n(C/C=[N+](/C)[O-])c1=O` [9h], in data set [8], the Emax was found to be 115 ± 6.92% and the EC50 turned out to be 6.15 ± 0.33 µM. Also, in data set [1], the half-inhibitory concentration (IC50) is 17.6 ± 3.33 µM and the Emax was 126 ± 4.27%. Further, in data set [2], the EC50 worked out at 0.32 ± 0.06 µM and the Emax turned out to be 127 ± 3.12%. Also, the “ILPO (%)” value in data set [4] was “inactive and No”. In data set [5], the “DPPH (%)” value was 82%. Moreover, the “OH (%) scavenging” value in data set [6] turned out to be 25%. Besides, the “ABTS+ (%)” value in data set [7] is 50%.

As for `CC(=O)N[C@@H](CS)C(=O)O` [NAC, N-acetyl-L-cysteine, reference compound], the Emax in data set [8] worked out at 131 ± 4.85%; in data set [1], 99.1 ± 6.59%; in data set [2], 126 ± 5.19%. The EC50 worked out at 4.18 ± 0.52 µM in [8] and 0.97 ± 0.16 µM in data set [2]. The IC50 in data set [1] amounted to 4.64 ± 1.05 µM. Also, the “Neurotoxic effects at basal level (cell viability)” value in data set [9] is “did not show any neurotoxic effects”.

For `CC(Cc1ccc(O)c(O)c1)C(C)Cc1ccc(O)c(O)c1` (stereo not shown) [NDGA, Nordihydroguaiaretic acid, reference compound], the “DPPH (%)” value in data set [5] is reported as 93%.

For the molecule `Cc1c(C)c2c(c(C)c1O)CCC(C)(C(=O)O)O2` (stereo not shown) [Trolox, reference compound], in data set [4], the “ILPO (%)” value worked out at 93%. The “OH (%) scavenging” value in [6] is 73%. Further, the “ABTS+ (%)” value in data set [7] was 91%.

(Values after article PMC8955307, “Nucleobase-Derived Nitrones: Synthesis and Antioxidant and Neuroprotective Activities in an In Vitro Model of Ischemia–Reperfusion” (International Journal of Molecular Sciences, 2022).)
